A short description of data set [1]: Stability of DHA powder at room temperature. Type of data set: physicochemical. As to conditions: powder form, no antioxidants added.
Data set [2] in a line: Solubility of the isolated DHA powder (physical characterisation). As to conditions: solvent chloroform; isolated DHA free fatty acid powder. The data set is classed as physicochemical. On the procedure: Take 1 liter of fish oil. Maintain temperature to 40-45° C. To it add 1-2% methanolic/ethanolic/propanolic/butanolic sodium or potassium hydroxide 1 liter. Stir for ½ an hour. It separates two layers, discard upper layer which contains lower fatty acids and other impurities. Then, to the lower layer add 750 ml of acetone or ethyl or methyl ketone and stir for one hr and keep aside for ½ hour to precipitate DHA. Filter it and wash 2-3 times with equal quantity of acetone. Evaporate and recover the solvent with temperature not exceeding 40 degree C. This leads to drying of the precipitated DHA at room temperature to form the crystalline mass. The same is passed through the sieve to obtain a dry, directly compressible, free flowing powder of polyunsaturated free fatty acid DHA thereof. The DHA is creamish or off-white crystalline solid powder having melting point 60-62 degree C.
Cool fish oil 12 degree C. to solidify all fatty acids in waxy form and separate it from fish oil. Maintain temperature to 40-45° C. In 1 kg waxy fatty acid, add 1 litre ethanolic or methanolic or propanolic or butanolic sodium or potassium hydroxide 1-2% and stir it for ½ an hour. The solution separates the oily layer which contains lower fatty acids and other impurities then, add ethyl acetate:acetone 90:10 to 10:90 to above solvent. It precipitates DHA in solid form. […]

For `CC/C=C\C/C=C\C/C=C\C/C=C\C/C=C\C/C=C\CCC(=O)O` [DHA, Docosahexaenoic acid], in data set [1], the Stability entry is listed as “stable at room temperature”. For the same compound, in data set [2], the Solubility result is “freely soluble in chloroform”.

Source of the values: patent US20140018558A1, “DOCOSAHEXAENOIC ACID (DHA) AS POLYUNSATURATED FREE FATTY ACID IN ITS DIRECTLY COMPRESSIBLE POWDER FORM AND METHOD OF ISOLATION THEREOF” (priority 2011, published 2014).
